Experimental data as given in patent US7998965B2, “Glutamate aggrecanase inhibitors” (Wyeth LLC, priority 2005, dated 2011).
pIC50, pKi: −log10 of the molar value. Like-named read-outs stand apart in the source and are kept apart here.

Assays:
[1] = target: T1, purified recombinant human Aggrecanase-2 (Ag2t-Phe628-Strep) (Homo sapiens, UniProt Q9UNA0); assay: In vitro fluorescence screen for Aggrecanase-2 inhibitors; format: biochemical; conditions: for pIC50: read-out: Agg 2 IC50; for pKi: read-out: Ki Agg2
T1 construct: the form used is denoted as Ag2t-Phe628-Strep (MW=41,737)
T1 sequence (Q9UNA0 262-628): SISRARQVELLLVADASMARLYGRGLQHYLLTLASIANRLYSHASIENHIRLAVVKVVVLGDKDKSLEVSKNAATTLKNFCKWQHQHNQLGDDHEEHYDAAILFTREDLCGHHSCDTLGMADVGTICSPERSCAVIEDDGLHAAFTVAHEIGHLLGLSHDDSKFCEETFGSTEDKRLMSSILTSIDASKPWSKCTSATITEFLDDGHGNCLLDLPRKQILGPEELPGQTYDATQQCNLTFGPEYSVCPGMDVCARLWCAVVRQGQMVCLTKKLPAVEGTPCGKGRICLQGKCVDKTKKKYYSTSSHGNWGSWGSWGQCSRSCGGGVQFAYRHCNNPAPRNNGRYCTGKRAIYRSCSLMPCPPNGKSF

[2] = target: T2, recombinant human MMP-2 (Homo sapiens, UniProt P08253); assay: In vitro fluorescence assay of MMP-2 activity
T2 sequence (P08253 110-660): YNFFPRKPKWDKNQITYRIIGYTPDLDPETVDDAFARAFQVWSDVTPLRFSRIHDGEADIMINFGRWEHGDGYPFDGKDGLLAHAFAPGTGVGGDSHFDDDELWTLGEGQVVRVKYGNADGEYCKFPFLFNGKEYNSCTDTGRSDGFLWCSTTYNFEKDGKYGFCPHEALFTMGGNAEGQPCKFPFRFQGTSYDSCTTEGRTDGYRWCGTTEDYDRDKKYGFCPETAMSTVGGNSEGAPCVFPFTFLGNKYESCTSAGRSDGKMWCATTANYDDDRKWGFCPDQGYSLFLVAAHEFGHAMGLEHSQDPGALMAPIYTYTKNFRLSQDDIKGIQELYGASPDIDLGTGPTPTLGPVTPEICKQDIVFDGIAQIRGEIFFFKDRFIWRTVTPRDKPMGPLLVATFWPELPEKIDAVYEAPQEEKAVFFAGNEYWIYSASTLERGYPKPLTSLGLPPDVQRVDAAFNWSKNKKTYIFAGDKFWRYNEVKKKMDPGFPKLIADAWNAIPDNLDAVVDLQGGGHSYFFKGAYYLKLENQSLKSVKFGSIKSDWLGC

[3] = target: T3, purified recombinant human Aggrecanase-1 (rAgg1) (Homo sapiens, UniProt O75173); assay: In vitro fluorescence screen for Aggrecanase-1 inhibitors; format: biochemical; conditions: for pIC50: read-out: Agg1 IC50
T3 sequence (O75173 213-837): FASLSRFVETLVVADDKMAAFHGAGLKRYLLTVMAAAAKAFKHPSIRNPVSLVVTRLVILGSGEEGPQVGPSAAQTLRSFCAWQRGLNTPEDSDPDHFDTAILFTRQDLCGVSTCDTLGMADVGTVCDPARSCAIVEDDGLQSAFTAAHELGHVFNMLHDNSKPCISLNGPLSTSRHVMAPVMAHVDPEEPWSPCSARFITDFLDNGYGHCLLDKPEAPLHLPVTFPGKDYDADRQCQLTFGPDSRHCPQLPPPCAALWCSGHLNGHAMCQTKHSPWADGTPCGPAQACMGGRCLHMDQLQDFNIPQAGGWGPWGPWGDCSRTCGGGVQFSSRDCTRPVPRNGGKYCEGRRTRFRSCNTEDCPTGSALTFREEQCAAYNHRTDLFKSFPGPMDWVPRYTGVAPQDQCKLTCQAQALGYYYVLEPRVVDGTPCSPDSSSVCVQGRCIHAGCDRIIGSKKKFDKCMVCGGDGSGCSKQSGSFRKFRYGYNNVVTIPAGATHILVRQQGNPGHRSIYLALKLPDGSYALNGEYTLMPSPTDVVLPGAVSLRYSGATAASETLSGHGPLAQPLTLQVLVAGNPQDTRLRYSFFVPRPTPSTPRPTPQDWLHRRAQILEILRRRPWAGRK

[4] = target: MMP-8 (Homo sapiens, UniProt P22894); assay: MMP-8 of Table 3; format: biochemical; conditions: unit inferred
Chain of MMP-8 (P22894 101-467, species assumed): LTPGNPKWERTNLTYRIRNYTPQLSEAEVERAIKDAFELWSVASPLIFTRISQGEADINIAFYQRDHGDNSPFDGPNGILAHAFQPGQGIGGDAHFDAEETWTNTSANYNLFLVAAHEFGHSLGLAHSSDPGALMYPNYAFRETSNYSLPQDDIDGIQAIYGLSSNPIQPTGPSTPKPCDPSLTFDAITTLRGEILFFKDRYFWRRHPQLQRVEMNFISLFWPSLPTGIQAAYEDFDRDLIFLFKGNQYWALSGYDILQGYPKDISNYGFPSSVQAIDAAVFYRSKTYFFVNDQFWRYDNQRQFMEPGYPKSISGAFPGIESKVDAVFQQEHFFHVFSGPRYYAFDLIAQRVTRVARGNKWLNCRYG

[5] = target: MMP-12 (Homo sapiens, UniProt P39900); assay: MMP-12 of Table 3; format: biochemical; conditions: unit inferred
Chain of MMP-12 (P39900 106-470): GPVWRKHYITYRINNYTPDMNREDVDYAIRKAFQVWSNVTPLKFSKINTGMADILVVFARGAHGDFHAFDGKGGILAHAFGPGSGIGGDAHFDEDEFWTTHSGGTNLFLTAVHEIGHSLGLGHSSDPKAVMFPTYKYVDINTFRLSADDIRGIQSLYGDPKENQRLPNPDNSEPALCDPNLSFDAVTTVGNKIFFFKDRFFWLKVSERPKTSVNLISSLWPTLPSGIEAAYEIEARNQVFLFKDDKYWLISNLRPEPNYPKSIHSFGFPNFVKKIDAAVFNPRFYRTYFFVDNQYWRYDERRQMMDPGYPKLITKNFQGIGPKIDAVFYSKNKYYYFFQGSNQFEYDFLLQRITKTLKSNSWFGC

[6] = system: bovine articular cartilage treated with Interleukin 1 alpha (IL-1α); assay: Bovine articular cartilage explant cultures: inhibition of degradation of proteoglycan; format: cell-based; conditions: inhibitory effect expressed as percentage, concentration not printed
Procedure, shortened: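 Bovine metacarpal cartilage discs (6 mm), equilibrated in serum-free DMEM-based medium, were treated with 5 ng/ml IL-1 plus compound (working solutions 0.1-10 μg/ml), with medium collected and replaced on days 1, 2 and 3. Released proteoglycan was measured by DMMB absorbance at 520 nm against chondroitin sulphate standards, expressed as μg per mg cartilage, and inhibition given as percentage.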

[7] = target: T4, MMP-1 (Homo sapiens, UniProt P03956); assay: MMP-1 of Table 1; format: biochemical; conditions: unit inferred
T4 sequence (P03956 100-469): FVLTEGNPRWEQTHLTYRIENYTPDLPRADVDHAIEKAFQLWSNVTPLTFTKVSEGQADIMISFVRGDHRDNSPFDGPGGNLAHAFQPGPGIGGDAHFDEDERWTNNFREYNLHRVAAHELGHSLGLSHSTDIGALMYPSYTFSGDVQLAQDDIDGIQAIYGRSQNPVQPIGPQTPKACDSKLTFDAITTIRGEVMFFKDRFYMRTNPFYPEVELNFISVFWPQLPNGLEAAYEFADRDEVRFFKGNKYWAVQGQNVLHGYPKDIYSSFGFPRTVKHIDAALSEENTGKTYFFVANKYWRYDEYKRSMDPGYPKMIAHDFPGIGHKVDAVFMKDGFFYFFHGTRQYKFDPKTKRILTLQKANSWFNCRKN

[8] = target: T5, recombinant human catalytic domain of MMP-13 (Homo sapiens, UniProt P45452); assay: In vitro fluorescence assay of MMP-13 activity; format: biochemical; conditions: Table 1; for pIC50: unit inferred
T5 construct: catalytic domain of MMP-13 (165 amino acids, residues 104-268, 19 kDa)

[9] = target: T6, recombinant human catalytic domain of MMP-14 (Homo sapiens, UniProt P50281); assay: In vitro fluorescence assay of MMP-14 activity; format: biochemical; conditions: Table 1; unit inferred
T6 construct: 177 amino acids corresponding to Tyr89-Gly265 of mature human enzyme; purchased Chemicon International, Inc. CC1041

[10] = Table 1, first of two columns headed bovine
[11] = Table 1, second of two columns headed bovine
[12] = Table 1, enzyme not given, column follows Agg1 IC50, read-out: Ki

SMILES	pIC50 ([1]; Table 3)	pKi ([1]; Table 3)	pIC50 [2]	pIC50 ([3]; Table 3)	pKi ([3]; Table 3, read-out: Ki Agg1)	pIC50 [4]	pIC50 [5]	pIC50 ([1]; Table 1)	pIC50 [7]	pIC50 [8]	pIC50 [9]	pIC50 ([3]; Table 1)	inhibition at 0.14 µM ([1]; Table 3, at 140 (nM), read-out: Agg 2 % at concentration)	MMP-13 ([8]; unit not given)	pKi [3, 12]	bovine [6, 10]	bovine [6, 11]
CC(C)(Cc1ccccc1)NC(=O)[C@H](CCC(=O)O)NC(=O)c1ccc(-c2ccc(Br)s2)cc1 [Example 8OOOOOOOOO, N^2-[4-(5-bromo-2-thienyl)benzoyl]-N-(1,1-dimethyl-2-phenylethyl)-L-α-glutamine]	~7.52	7.18	6.14	> 7.52	8.57	6.46	6.43										
CC(C)(Cc1ccc(F)cc1)NC(=O)[C@H](CCC(=O)O)NC(=O)c1ccc(-c2ccsc2)cc1 [Example 8UUUUUUU, N-[2-(4-fluorophenyl)-1,1-dimethylethyl]-N^2-[4-(3-thienyl)benzoyl]-L-α-glutamine]	7.22	7.22	5.29	> 7.52	> 8.52	5.69	6.39										
Cc1ccc(-c2ccc(C(=O)N[C@@H](CCC(=O)O)C(=O)NC(C)(C)Cc3ccc(F)cc3)cc2)s1 [Example 8VVVVVVV, N-[2-(4-fluorophenyl)-1,1-dimethylethyl]-N^2-[4-(5-methyl-2-thienyl)benzoyl]-L-α-glutamine]		6.52	6.24	> 7.52	8.15	6.39	6.11						51%				
CC(C)(Cc1ccc(F)cc1)NC(=O)[C@H](CCC(=O)O)NC(=O)c1ccc(-c2ccc(Br)s2)cc1 [Example 8WWWWWW, N^2-[4-(5-bromo-2-thienyl)benzoyl]-N-[2-(4-fluorophenyl)-1,1-dimethylethyl]-L-α-glutamine]	7.30	7.14	5.59	> 8.52	8.15	6.00	5.24										
CN(C)c1ccc(CNC(=O)[C@H](CCC(=O)O)NC(=O)c2ccc(-c3ccccc3)cc2)cc1 [Example 8ZZZ, N^2-(biphenyl-4-ylcarbonyl)-N^1-[4-(dimethylamino)benzyl]-L-α-glutamine]			4.89					5.80	< 4.30		< 3.70	7.00		no inh		72%	34%
O=C(O)CC[C@H](NC(=O)c1ccc(-c2cccs2)cc1)C(=O)NCc1ccccc1 [Example 11, N^1-benzyl-N^2-(4-thien-2-ylbenzoyl)-L-α-glutamine]			~6.00					~6.10	~5.70	~5.30	~5.70	6.96				78%	52%

Second part, led by results:

pIC50 ([1]; Table 3)	pKi ([1]; Table 3)	pIC50 [2]	pIC50 ([3]; Table 3)	pKi ([3]; Table 3, read-out: Ki Agg1)	pIC50 [4]	pIC50 [5]	pIC50 ([1]; Table 1)	pIC50 [7]	pIC50 [8]	pIC50 [9]	pIC50 ([3]; Table 1)	inhibition at 0.14 µM ([1]; Table 3, at 140 (nM), read-out: Agg 2 % at concentration)	MMP-13 ([8]; unit not given)	pKi [3, 12]	SMILES	bovine [6, 10]	bovine [6, 11]
		5.46					5.96	< 4.00	~4.17	~4.52	6.80				CSc1ccc(CNC(=O)[C@H](CCC(=O)O)NC(=O)c2ccc(-c3ccccc3)cc2)cc1 [Example 8V, N^2-(1,1′-biphenyl-4-ylcarbonyl)-N^1-[4-(methylthio)benzyl]-L-α-glutamine]	73%	45%
		< 4.70					5.96	< 4.30	~4.70	< 3.70	7.37			7.27	C=Cc1cccc(CNC(=O)[C@H](CCC(=O)O)NC(=O)c2ccc(-c3ccccc3)cc2)c1 [Example 10M, N^2-(1,1′-biphenyl-4-ylcarbonyl)-N^1-(3-vinylbenzyl)-L-α-glutamine]	67%	35%
		5.12					6.01	< 3.70	< 4.30	< 3.70	7.72			7.55	O=C(O)CC[C@H](NC(=O)c1ccc(-c2ccccc2)cc1)C(=O)NCc1cccc(-c2cccs2)c1 [Example 10N, N^2-(1,1′-biphenyl-4-ylcarbonyl)-N^1-(3-thien-2-ylbenzyl)-L-α-glutamine]	65%	24%
		< 4.70					5.72	< 4.30	< 4.70	< 3.70	7.11			6.73	C=Cc1ccc(CNC(=O)[C@H](CCC(=O)O)NC(=O)c2ccc(-c3ccccc3)cc2)cc1 [Example 10R, N^2-(1,1′-biphenyl-4-ylcarbonyl)-N^1-(4-vinylbenzyl)-L-α-glutamine]	41%	0%
		~5.70					~5.30	~5.70	~5.22	~5.70	6.15				O=C(O)CC[C@H](NC(=O)c1ccc(-c2ccco2)cc1)C(=O)NCc1ccccc1 [Example 12A, N^1-benzyl-N^2-[4-(2-furyl)benzoyl]-L-α-glutamine]	41%	18%
		~4.17					~4.17	< 4.00	< 4.00	< 4.00	5.82				Cc1cc(C)cc(-c2ccc(C(=O)N[C@@H](CCC(=O)O)C(=O)NCc3ccccc3)cc2)c1 [Example 13A, N^1-benzyl-N^2-[(3′,5′-dimethyl-1,1′-biphenyl-4-yl)carbonyl]-L-α-glutamine]	37%	18%
		< 3.70					~4.59	< 4.00	< 3.70	< 4.00	6.12				CCOc1cccc(-c2ccc(C(=O)N[C@@H](CCC(=O)O)C(=O)NCc3ccccc3)cc2)c1 [Example 13D, N^1-benzyl-N^2-[(3′-ethoxy-1,1′-biphenyl-4-yl)carbonyl]-L-α-glutamine]	51%	25%
